From patent US20140357688A1, “METHOD FOR INHIBITING EZH2 EXPRESSION IN BREAST CANCER CELLS” (Yung Shin Pharm. Ind. Co., Ltd., priority 2013, published 2014)

What was measured:
MDA-MB-468 = assay: MTT cell viability assay; format: cell-based, human; settings: inhibitor pretreatment, then 3 μM YC-1 for 6 h
Experimental: (A) Cells were treated with indicated concentration of YC-1 for 6, 24, and 48 h. Cell viability was determined by MTT method. (B) MDA-MB-468 cells were treated with 3 μM YC-1 for 0, 6, and 12 h, and then stained with fluorescence diacetate (FDA) and propidium iodide (PI). Cell morphology was assessed by fluorescence microscopy with magnification ×20 (upper 3 rows) or ×40 (lowest row). (C) MDA-MB-468 cells were treated with 3 μM YC-1 for 24 h, cells were lysed and subjected to western blot analysis described in Materials and Methods. β-actin is a loading control. Blots were representative of results from three independent experiments. (D) Cells were treated with vehicle (DMSO, as control) or 3 μM YC-1 for 6 h. The cell cycles were analyzed by flow cytometry. (E) Cells were treated with indicated concentration of YC-1 and then performed with clonogenic assay.
Human breast cancer cells, MDA-MB-468, MDA-MB-157, MDA-MB-231, MDA-MB-453, and Hs578T, and immortalized mammary epithelial cell lines, 184A1 and MCF-10A, were obtained from American Type Culture Collection (Manassas, Va., USA). MDA-MB-468, MDA-MB-157, MDA-MB-231, and MDA-MB-453 were cultured in DMEM/F12 medium supplemented with 10% FBS, 100 U/ml penicillin, and 100 μg/ml streptomycin. Hs578T was cultured in RPMI 1640 medium containing 10% FBS, 2 mM L-glutamine, 100 U/ml penicillin, and 100 μg/ml streptomycin. 184A1 and MCF-10A were cultured in DMEM/F12 medium supplemented with 5% horse serum, 0.5 μg/ml hydrocortisone, 10 μg/ml insulin, 20 ng/ml epidermal growth factor, 0.1 μg/ml cholera enterotoxin, 2 mM L-glutamine, 100 U/ml penicillin, and 100 μg/ml streptomycin. All cells were maintained in a humidified incubator containing 5% CO2. For hypoxia treatment, cells were incubated in a chamber flushed with 1% 02, 5% CO2, and 94% N2 at 37° C.
Cell viability was measured by 3-(4,5-Dimethyl-2-thiazolyl)2,5-diphenyl-2H-tetrazolium bromide (MTT) assay.

EZH2 [1] = assay: Western blot of EZH2 protein expression in MDA-MB-468 cells; format: cell-based, human; settings: inhibitor pretreatment, then 3 μM YC-1 for 6 h
Experimental: Cells were harvested and performed with western blotting analysis. […] The levels of protein expression were quantitated and shown under blots. (C) Cells were transfected with EZH2 shRNA for 0, 1, 2, 3, and 4 days and collected for determination of cell viability (left) and protein expression (right). (D)(E) After 4 days of EZH2 knockdown, cells were incubated with 3 μM YC-1 for 4 h and detected cell viability (D) and protein contents (E). (F) Tumor specimens were isolated and protein was extracted for western blot analysis.
Cells were lysed in PBS containing proteinase inhibitor and phosphatase inhibitors and sonication. Protein concentration was measured using the Bio-Rad protein assay kit (Bio-Rad Laboratories, Hercules, Calif., USA). Lysate protein was separated by electrophoresis of SDS-PAGE and transferred to Immobilon P membrane (EMD Millipore). The membranes were incubated with appropriate primary antibodies and horseradish peroxidase-conjugated secondary antibodies (EMD Millipore). The signaling was visualized using Chemiluminescence substrate kit (EMD Millipore) and collected by the Luminesence image analyzer, LAS4000 (Fuji Photo Film Co., Tokyo, Japan). The band intensities were analyzed and quantified by the Multi Gauge software (Fuji Photo Film).

EZH2 [2] = assay: EZH2 ubiquitination assay; format: cell-based, human; settings: inhibitor pretreatment, then 3 μM YC-1
Experimental: (A) Cells were pretreated with cyclohexamide (30 μM) for 1 h and followed by induction with vehicle (DMSO) or YC-1 (3 μM) for indicated time. Cells were harvested for detection of protein expression. (B)(C) Cells were incubated with 3 μM YC-1 for 6 h in the presence of vehicle, 3 μM MG-132 or 30 μM NH4Cl. Cells were harvested for detection of protein expression (B) or cell viability assay (C). The levels of protein expression were quantitated and shown under blots. (D) After treatment of 3 μM YC-1 for indicated time, cells were harvested and lysed for immunoprecipitation and western blot analysis described in Materials and Methods.
Cells were lysed with MLB buffer (25 mM HEPES, pH 7.5, 150 mM NaCl, 1% Igepal CA-630, 10 mM MgCl2, 1 mM EDTA, 2% glycerol, 1 mM Na3VO4, 1 mM NaF, 1 mM PMSF, 10 μg/ml of leupeptin, aprotinin, and pepstatin A). After sonication, cell lysates were centrifugated at 12,000×g for 10 min at 4° C. Supernatants were incubated with anti-EZH2 antibody (BD Biosciences) and protein A Sepharose beads (GE Health Care) overnight at 4° C. After washing with MLB buffer, precipitated proteins were boiled in 1× Laemmli sample buffer and then separated with SDS-PAGE. The ubiquitination levels of EZH2 were recognized by using anti-Ubiquitn monoclonal antibody.

ERK = assay: Western blot of ERK phosphorylation in MDA-MB-468 cells; format: cell-based, human; settings: 3 μM YC-1 for 6 h in the presence of inhibitor
Experimental: (A) Cells were pretreated with KT5720 (3 μM), KT5823 (3 μM), NS2028 (30 μM), or ODQ (30 μM) and then stimulated with YC-1 (3 μM) for 6 h. Cells were collected for measurement of protein expression (left) or cell viability (middle). After 3 days of PKA knockdown, cells were induced with 3 μM YC-1 for 4 h. Cells were harvested and analyzed using western blotting (right). The levels of protein expression were quantitated and shown under blots. […] Cells were collected and analyzed protein expression (left) and cells viability (middle). p44/42 MAPK knockdown cells were treated with 3 μM YC-1 for 4 h and then detected protein expression (left). (C) Cells were treated with 3 μM YC-1 for indicated time. Cells were harvested for detection of protein phosphorylated activation. […] Six hours later, cells were harvested for EZH2 ubiquitination assay. (E) Cells were induced by 3 μM YC-1 for 6 h in the presence of PD98059 or KT5720. Cells were collected for the determination of ERK phosphorylation. Cells were lysed in PBS containing proteinase inhibitor and phosphatase inhibitors and sonication. Protein concentration was measured using the Bio-Rad protein assay kit (Bio-Rad Laboratories, Hercules, Calif., USA). […] The band intensities were analyzed and quantified by the Multi Gauge software (Fuji Photo Film).

EZH2-c-Cbl-ERK = assay: Co-immunoprecipitation of c-Cbl and EZH2; format: cell-based, human; settings: PD98059 10 μM with MG-132, then 2 h 3 μM YC-1
Experimental: (A) c-Cbl knockdown MDA-MB-468 cells were treated with 3 μM YC-1 for 4 h. Cell were harvested for detection of protein expression. (B) Cells were treated with 3 μM YC-1 for indicated time. Cells were collected and c-Cbl phosphorylation was detected. (C) Cells were pretreated with MG-132 (3 μM) or NH4Cl (30 μM) for 1 h followed by 3 μM YC-1 induction for 6 h. (D) Cells were pretreated with MG-132 and followed by 3 μM YC-1 induction for indicated time. Cells were harvested and lysed for immunoprecipitation assay. The association between c-Cbl and EZH2 were determined by western blotting analysis and probed with anti-EZH2 or anti-c-Cbl antibody. Membranes were stripped and reprobed with anti-c-Cbl or anti-EZH2 antibody to check the input. (E) Cells were preincubated with or without PD98059 (10 μM) in the presence of MG-132 for 1 h prior to 2 h-treatment of 3 μM YC-1. Then cells were collected and lysate protein was subjected for the detection of the c-Cbl-EZH2 complexes.
Cells were lysed with RIPA buffer (50 mM Tris-C1, pH 7.5, 1% Igepal CA-630, 150 mM NaCl, 1 mM EDTA, 1 mM Na3VO4, 1 mM NaF, 1 mM PMSF, 10 μg/ml of leupeptin, aprotinin, and pepstatin A) for 30 min at 4° C. One milligram of cell lysate was incubated with anti-EZH2 or anti-c-Cbl antibody and protein A-Sepharose beads, then gently rotated at 4° C. overnight. […]

MDA-MB-468 xenograft = assay: MDA-MB-468 breast cancer xenograft animal model; format: in vivo, Nu/Nu mice
Experimental: MDA-MB-468 cells were used to inoculate Nu/Nu mice. (A, left) Tumor bearing mice were given vehicle (10 μl DMSO, CTL) or YC-1 (30 and 60 mg/kg/day) by ip treatment. (B, right) Tumor bearing mice were given vehicle (normal saline, CTL) or YC-1-succinate (YC-1-S; 20, 40, and 80 mg/kg/day) by oral administration. During treatment period, tumor volume and body weights of mice were measured once per 3 days. Data are expressed as mean of tumor volume (mm^3)±S.E.M. from 6 mice (YC-1 treatment) or 10 mice (YC-1-S treatment). Tumor weights (B) and body weights of mice (C) in control and YC-1/YC-1-S-treated groups were recorded.
Nu/Nu female mice (four weeks old) were from National Laboratory Animal Center, Taipei, Taiwan. Mice were maintained under procedures and guidelines from the Institutional Animal Care and Use of the National Health Research Institutes. MDA-MB-468 breast cancer cells (5×10^6 cells per mouse) were suspended in 0.1 ml of Matrigel solution (50%, v/v, Matrigel in 1×PBS) and inoculated into the mammary fat pads of nude mice. When the tumor masses reached to 100 mm^3, the tumor bearing mice were randomly divided into different groups for different dosage of YC-1 treatments. The mice were given by intraperitoneal injection with YC-1 or oral administration of YC-1-succinate. Tumor size and body weights of mice were measured once per 3 days and tumor volume (mm^3) was calculated as the equation: length×[…]. At the end of experiments, mice were sacrificed and tumor nodules were dissected and weighted. Tumor tissues were subjected to western blot analysis.

[3] = In vivo pharmacokinetic analysis

conversion of prodrug into active form [3] | SMILES | effect of inhibitor on YC-1-induced inhibition of cell viability (MDA-MB-468) | effect of inhibitor on YC-1-induced EZH2 inhibition (EZH2 [1]) | effect of inhibitor on YC-1-induced EZH2 ubiquitination (EZH2 [2]) | effect of inhibitor on ERK phosphorylation (ERK) | effect of inhibitor on EZH2-c-Cbl-ERK complex (EZH2-c-Cbl-ERK) | tumor growth (MDA-MB-468 xenograft; 20, 40, and 80 mg/kg orally) | body weights of mice (MDA-MB-468 xenograft; 20, 40, and 80 mg/kg/day oral) | tumor weight (MDA-MB-468 xenograft; 20, 40, and 80 mg/kg/day oral)
 | CCCCCCOC(=O)[C@]1(O)C[C@@H]2O[C@@]1(C)n1c3ccccc3c3c4c(c5c6ccccc6n2c5c31)C(=O)NC4 [KT5720] | significantly reversed | significantly reversed | could be blocked | did not affect ERK phosphorylation |  |  |  | 
 | COc1cccc(-c2cc(=O)c3ccccc3o2)c1N [PD98059] | almost completely abolished | almost completely abolished | could be blocked |  | could be disrupted |  |  | 
quickly converted into its active form | O=C(O)CCC(=O)OCc1ccc(-c2nn(Cc3ccccc3)c3ccccc23)o1 [YC-1-succinate, succinic acid mono-[5-(1-benzyl-1H-indazol-3-yl)-furan-2-ylmethyl]ester] |  |  |  |  |  | dose-dependent inhibition | not affected | dose-dependently reduced tumor weight
